Measured values published in the NIST ThermoML archive (doi:10.1016/j.fluid.2016.02.004).
Numbers after ± are expanded uncertainties.

Assay: activity coefficient (dimensionless); of the first substance listed, at infinite dilution; xn = mol fraction of the nth substance listed
Settings: 358.15 K; Liquid; Chromatography; x1 = 0

With `CC(C)(C)O` [2-methylpropan-2-ol] + CCCCn1cc[n+](C)c1.N#CN=C=[N-] as the molecule, how does the activity coefficient read?
Its activity coefficient is 1.21 ± 0.08.

Which activity coefficient does the source give for `CCC(C)CC` [3-methylpentane] + CCCCn1cc[n+](C)c1.N#CN=C=[N-] here?
Its activity coefficient is 47.1 ± 3.2.

For `C=C(C)c1ccccc1` [(1-methylethenyl)benzene] + CCCCn1cc[n+](C)c1.N#CN=C=[N-], which activity coefficient is on record?
The activity coefficient was 4.26 ± 0.29.

Which activity coefficient does the source give for `CC(C)=O` [acetone] + CCCCn1cc[n+](C)c1.N#CN=C=[N-] here?
The activity coefficient was 1.22 ± 0.08.

With `CC#N` [acetonitrile] + CCCCn1cc[n+](C)c1.N#CN=C=[N-] as the molecule, how does the activity coefficient read?
Its activity coefficient is 0.904 ± 0.057.

For `c1ccccc1` [benzene] + CCCCn1cc[n+](C)c1.N#CN=C=[N-], which activity coefficient is on record?
The activity coefficient was 2.19 ± 0.15.

With `CCCCO` [butan-1-ol] + CCCCn1cc[n+](C)c1.N#CN=C=[N-] as the molecule, how does the activity coefficient read?
Its activity coefficient is 1.14 ± 0.07.

For `CCC(C)O` (centres undefined) [butan-2-ol] + CCCCn1cc[n+](C)c1.N#CN=C=[N-], which activity coefficient is on record?
The activity coefficient was 1.18 ± 0.08.

Which activity coefficient does the source give for `CCCC=O` [butanal] + CCCCn1cc[n+](C)c1.N#CN=C=[N-] here?
Its activity coefficient is 1.87 ± 0.13.

With `C1CCCCCC1` [cycloheptane] + CCCCn1cc[n+](C)c1.N#CN=C=[N-] as the molecule, how does the activity coefficient read?
Its activity coefficient is 28.1 ± 1.9.

For `C1CCCCC1` [cyclohexane] + CCCCn1cc[n+](C)c1.N#CN=C=[N-], which activity coefficient is on record?
Its activity coefficient is 23.1 ± 1.6.

For `C1=CCCCC1` [cyclohexene] + CCCCn1cc[n+](C)c1.N#CN=C=[N-], which activity coefficient is on record?
The activity coefficient was 11.3 ± 0.8.

For `C1CCCCCCC1` [cyclooctane] + CCCCn1cc[n+](C)c1.N#CN=C=[N-], which activity coefficient is on record?
Its activity coefficient is 35.8 ± 2.4.

Which activity coefficient does the source give for `C1CCCC1` [cyclopentane] + CCCCn1cc[n+](C)c1.N#CN=C=[N-] here?
Its activity coefficient is 15.5 ± 1.1.

Which activity coefficient does the source give for `CCCCCCCCCC` [decane] + CCCCn1cc[n+](C)c1.N#CN=C=[N-] here?
Its activity coefficient is 221 ± 15.

Which activity coefficient does the source give for `CCOCC` [diethyl ether] + CCCCn1cc[n+](C)c1.N#CN=C=[N-] here?
The activity coefficient was 7.74 ± 0.53.

With `CC(C)OC(C)C` [diisopropyl ether] + CCCCn1cc[n+](C)c1.N#CN=C=[N-] as the molecule, how does the activity coefficient read?
The activity coefficient was 21.8 ± 1.5.

For `CCCOCCC` [dipropyl ether] + CCCCn1cc[n+](C)c1.N#CN=C=[N-], which activity coefficient is on record?
Its activity coefficient is 20.5 ± 1.4.

Same assay, conditions: 368.15 K; Liquid; Chromatography; x1 = 0

For `Cc1ccccc1C` [1,2-dimethylbenzene] + CCCCn1cc[n+](C)c1.N#CN=C=[N-], which activity coefficient is on record?
Its activity coefficient is 4.57 ± 0.31.

With `Cc1cccc(C)c1` [1,3-dimethylbenzene] + CCCCn1cc[n+](C)c1.N#CN=C=[N-] as the molecule, how does the activity coefficient read?
The activity coefficient was 5.56 ± 0.38.

With `Cc1ccc(C)cc1` [1,4-dimethylbenzene] + CCCCn1cc[n+](C)c1.N#CN=C=[N-] as the molecule, how does the activity coefficient read?
The activity coefficient was 5.37 ± 0.37.

With `C1COCCO1` [1,4-dioxane] + CCCCn1cc[n+](C)c1.N#CN=C=[N-] as the molecule, how does the activity coefficient read?
The activity coefficient was 1.43 ± 0.09.

Which activity coefficient does the source give for `C=CCCCCCCCC` [1-decene] + CCCCn1cc[n+](C)c1.N#CN=C=[N-] here?
Its activity coefficient is 111 ± 8.

With `C=CCCCCC` [1-heptene] + CCCCn1cc[n+](C)c1.N#CN=C=[N-] as the molecule, how does the activity coefficient read?
The activity coefficient was 37 ± 2.5.

Which activity coefficient does the source give for `C#CCCCCC` [1-heptyne] + CCCCn1cc[n+](C)c1.N#CN=C=[N-] here?
Its activity coefficient is 10.2 ± 0.7.

For `C#CCCCC` [1-hexyne] + CCCCn1cc[n+](C)c1.N#CN=C=[N-], which activity coefficient is on record?
The activity coefficient was 7.23 ± 0.49.

Which activity coefficient does the source give for `CCC[N+](=O)[O-]` [1-nitropropane] + CCCCn1cc[n+](C)c1.N#CN=C=[N-] here?
Its activity coefficient is 1.5 ± 0.1.

Which activity coefficient does the source give for `C#CCCCCCC` [1-octyne] + CCCCn1cc[n+](C)c1.N#CN=C=[N-] here?
Its activity coefficient is 14.8 ± 1.

Which activity coefficient does the source give for `C=CCCC` [1-pentene] + CCCCn1cc[n+](C)c1.N#CN=C=[N-] here?
The activity coefficient was 17.3 ± 1.2.

Which activity coefficient does the source give for `C#CCCC` [1-pentyne] + CCCCn1cc[n+](C)c1.N#CN=C=[N-] here?
Its activity coefficient is 4.84 ± 0.33.

With `CC(C)CC(C)(C)C` [2,2,4-trimethylpentane] + CCCCn1cc[n+](C)c1.N#CN=C=[N-] as the molecule, how does the activity coefficient read?
Its activity coefficient is 89.2 ± 6.1.

For `CCC(C)(C)C` [2,2-dimethylbutane] + CCCCn1cc[n+](C)c1.N#CN=C=[N-], which activity coefficient is on record?
The activity coefficient was 46 ± 3.1.

With `CCOC(C)(C)C` [2-ethoxy-2-methylpropane] + CCCCn1cc[n+](C)c1.N#CN=C=[N-] as the molecule, how does the activity coefficient read?
The activity coefficient was 19.7 ± 1.3.

Which activity coefficient does the source give for `CCC(C)(C)OC` [2-methoxy-2-methylbutane] + CCCCn1cc[n+](C)c1.N#CN=C=[N-] here?
Its activity coefficient is 12.5 ± 0.9.

For `COC(C)(C)C` [2-methoxy-2-methylpropane] + CCCCn1cc[n+](C)c1.N#CN=C=[N-], which activity coefficient is on record?
The activity coefficient was 8.8 ± 0.6.

With `CC(C)CO` [2-methyl-1-propanol] + CCCCn1cc[n+](C)c1.N#CN=C=[N-] as the molecule, how does the activity coefficient read?
Its activity coefficient is 1.09 ± 0.07.

Which activity coefficient does the source give for `CC(C)(C)O` [2-methylpropan-2-ol] + CCCCn1cc[n+](C)c1.N#CN=C=[N-] here?
The activity coefficient was 1.24 ± 0.08.

For `CCC(C)CC` [3-methylpentane] + CCCCn1cc[n+](C)c1.N#CN=C=[N-], which activity coefficient is on record?
Its activity coefficient is 45.6 ± 3.1.

For `C=C(C)c1ccccc1` [(1-methylethenyl)benzene] + CCCCn1cc[n+](C)c1.N#CN=C=[N-], which activity coefficient is on record?
The activity coefficient was 4.51 ± 0.31.

With `CC(C)=O` [acetone] + CCCCn1cc[n+](C)c1.N#CN=C=[N-] as the molecule, how does the activity coefficient read?
The activity coefficient was 1.27 ± 0.08.

Which activity coefficient does the source give for `CC#N` [acetonitrile] + CCCCn1cc[n+](C)c1.N#CN=C=[N-] here?
The activity coefficient was 0.934 ± 0.059.

With `c1ccccc1` [benzene] + CCCCn1cc[n+](C)c1.N#CN=C=[N-] as the molecule, how does the activity coefficient read?
The activity coefficient was 2.28 ± 0.16.

Which activity coefficient does the source give for `CCCCO` [butan-1-ol] + CCCCn1cc[n+](C)c1.N#CN=C=[N-] here?
The activity coefficient was 1.15 ± 0.07.

Which activity coefficient does the source give for `CCC(C)O` (centres undefined) [butan-2-ol] + CCCCn1cc[n+](C)c1.N#CN=C=[N-] here?
Its activity coefficient is 1.19 ± 0.08.

For `CCCC=O` [butanal] + CCCCn1cc[n+](C)c1.N#CN=C=[N-], which activity coefficient is on record?
The activity coefficient was 1.93 ± 0.13.

With `C1CCCCCC1` [cycloheptane] + CCCCn1cc[n+](C)c1.N#CN=C=[N-] as the molecule, how does the activity coefficient read?
Its activity coefficient is 27.3 ± 1.9.

Which activity coefficient does the source give for `C1CCCCC1` [cyclohexane] + CCCCn1cc[n+](C)c1.N#CN=C=[N-] here?
The activity coefficient was 22.6 ± 1.5.

For `C1=CCCCC1` [cyclohexene] + CCCCn1cc[n+](C)c1.N#CN=C=[N-], which activity coefficient is on record?
The activity coefficient was 11.3 ± 0.8.

For `C1CCCCCCC1` [cyclooctane] + CCCCn1cc[n+](C)c1.N#CN=C=[N-], which activity coefficient is on record?
The activity coefficient was 34.5 ± 2.4.

With `C1CCCC1` [cyclopentane] + CCCCn1cc[n+](C)c1.N#CN=C=[N-] as the molecule, how does the activity coefficient read?
Its activity coefficient is 15.1 ± 1.

For `CCCCCCCCCC` [decane] + CCCCn1cc[n+](C)c1.N#CN=C=[N-], which activity coefficient is on record?
Its activity coefficient is 205 ± 14.

With `CCOCC` [diethyl ether] + CCCCn1cc[n+](C)c1.N#CN=C=[N-] as the molecule, how does the activity coefficient read?
The activity coefficient was 7.95 ± 0.54.

For `CC(C)OC(C)C` [diisopropyl ether] + CCCCn1cc[n+](C)c1.N#CN=C=[N-], which activity coefficient is on record?
Its activity coefficient is 22 ± 1.5.

Which activity coefficient does the source give for `CCCOCCC` [dipropyl ether] + CCCCn1cc[n+](C)c1.N#CN=C=[N-] here?
Its activity coefficient is 20.6 ± 1.4.
